Results published in US7122520B2, “Methods of modulating appetite using agouti-related transcript polypeptides” (Amgen Inc., priority 1996, dated 2006).
Ends that are not written are not given here.

Tests used:
food intake of rats = assay: Feeding behavior of rats treated with ART (intracerebroventricular injection); type: in vivo, Long-Evans male rats
Method: Long-Evans male rats weighing 300–500 grams were chronically implanted in the brain with a 22 gauge cannula aimed at the lateral ventricle. The steriotaxic coordinates for the canulas were approximately: 0.8 mm anterior/posterior; 1.4 mm medial/lateral; and 3.5 mm dorsal/ventral. A 3.5 mm, 28 gauge stylet remained inside the implanted cannula until the animal was ready for an injection. ART peptide or control solutions were administered with a 28 gauge injector that extended about 1 mm beyond the tip of the cannula.
ART peptide was dissolved in PBS (pH about 7.0) and injected into the lateral ventricle at doses ranging from about 0.075 nmol to about 7.5 nmol in a volume of about 2 μl. Controls were PBS and an unfolded version of ART at about 7.5 nmol. Feeding measurements were taken from pre-weighed dishes containing a mixture of ground rodent chow, sugar, and condensed milk. (45%:28%:27%). Rats were offered this mixture along with their regular chow about 24 hours prior to injection. About one and one half hours prior to infusion, the regular chow was removed, but the rats were allowed to continue feeding on the sweetened mixture. Injections were done at 8:30 am or at 8:30 pm. Food intake was assessed by weighing the dishes over time at 90 minutes, 4 hours, 8 hours, 12 hours, and 24 hours after injection. 10–12 rats were used per group.

feeding response of rats = conditions: injection into the brain of rats; cited from earlier work
MC1 receptor = target: T1, MC1 receptor (Mus musculus, UniProt Q01727); conditions: B16F10 mouse melanoma cell cultures; cited from earlier work
T1 construct: at the MC1 receptor in B16F10 mouse melanoma cell cultures; endogenous in cells; host or cells: B16F10 mouse melanoma cells
T1 sequence (Q01727 whole entry): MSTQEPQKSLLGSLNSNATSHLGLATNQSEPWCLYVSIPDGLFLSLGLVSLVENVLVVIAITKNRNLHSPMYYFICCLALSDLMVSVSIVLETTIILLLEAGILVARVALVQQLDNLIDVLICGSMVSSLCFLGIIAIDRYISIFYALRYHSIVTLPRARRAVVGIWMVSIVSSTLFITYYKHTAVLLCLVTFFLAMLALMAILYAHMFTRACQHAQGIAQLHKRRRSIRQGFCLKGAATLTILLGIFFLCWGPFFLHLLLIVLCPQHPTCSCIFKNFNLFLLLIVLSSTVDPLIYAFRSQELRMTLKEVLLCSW

folded ART: synthetic peptide containing amino acids 79–132 of ART (SEQ ID NO:8), refolded in Tris-HCl/urea (REPRSSRRCVRLHESCLGQQVPCCDPCATCYCRFFNAFCYCRKLGTAMNPCSRT; cysteine pairing not given here; also: refolded)
food intake (cumulative amount of food consumed) (food intake of rats; injection into lateral ventricle, 0.075-7.5 nmol in about 2 μl, measured 90 minutes to 24 hours after injection, vs PBS and unfolded ART controls): increased their food intake as compared to controls | relation between amount of ART injected and amount of food eaten (food intake of rats; lateral ventricle, doses about 0.075 nmol to about 7.5 nmol): correlation between the amount of ART injected and the amount of food eaten

melanin concentrating hormone (DFDMLRCMLGRVYRPCWQV; ends and bridges not checked; cysteine pairing not given here; UniProt P20382 147-165, looked up) [MCH]
feeding response (feeding response of rats): stimulates a feeding response

B1: mouse agouti protein: 131 amino acid secreted protein encoded by the mouse agouti gene (protein, UniProt Q03288 23-131, looked up)
Agouti-signaling protein: HLALEETLGDDRSLRSNSSMNSLDFSSVSIVALNKKSKKISRKEAEKRKRSSKKKASMKKVARPPPPSPCVATRDSCKPPAPACCDPCASCQCRFFGSACTCRVLNPNC
antagonism of a-MSH at the MC1 receptor (MC1 receptor): potent antagonist
